Source: patent publication US20240383954A1, “PEPTIDE INHIBITORS OF INTERLEUKIN-23 RECEPTOR AND THEIR USE TO TREAT INFLAMMATORY DISEASES” (Janssen Biotech, Inc., priority 2020, published 2024)
Starred links: 1 amine or outer side, 2 acyl side, 3 side chain; linkers in the order of their positions; H or OH if unused. Positions of bridges follow the written chain, without caps; N, C: chain ends. Non-standard residues stand in square brackets, D forms with d. Residues, ends and D or L forms follow the SMILES beside them. Trp(7-Me) = Cc1cccc2c(C[C@H](N)C(=O)O)c[nH]c12; Abu(4-yl) = O=C([C@H](CC[*:3])N[*:1])[*:2]; 2Nal = N[C@@H](Cc1ccc2ccccc2c1)C(=O)O; AEF = NCCOc1ccc(C[C@H](N)C(=O)O)cc1; αMeF = C[C@](N)(Cc1ccccc1)C(=O)O; Cit = NC(=O)NCCC[C@H](N)C(=O)O; Pen = CC(C)(S)[C@H](N)C(=O)O; αMeK = C[C@](N)(CCCCN)C(=O)O; dDap = NC[C@@H](N)C(=O)O; Aib = CC(C)(N)C(=O)O

Each compound was assayed against T1, IL-23R (Homo sapiens, UniProt Q5VWK5) (assay: cell-based). Settings: not given.
T1 sequence (Q5VWK5 24-629): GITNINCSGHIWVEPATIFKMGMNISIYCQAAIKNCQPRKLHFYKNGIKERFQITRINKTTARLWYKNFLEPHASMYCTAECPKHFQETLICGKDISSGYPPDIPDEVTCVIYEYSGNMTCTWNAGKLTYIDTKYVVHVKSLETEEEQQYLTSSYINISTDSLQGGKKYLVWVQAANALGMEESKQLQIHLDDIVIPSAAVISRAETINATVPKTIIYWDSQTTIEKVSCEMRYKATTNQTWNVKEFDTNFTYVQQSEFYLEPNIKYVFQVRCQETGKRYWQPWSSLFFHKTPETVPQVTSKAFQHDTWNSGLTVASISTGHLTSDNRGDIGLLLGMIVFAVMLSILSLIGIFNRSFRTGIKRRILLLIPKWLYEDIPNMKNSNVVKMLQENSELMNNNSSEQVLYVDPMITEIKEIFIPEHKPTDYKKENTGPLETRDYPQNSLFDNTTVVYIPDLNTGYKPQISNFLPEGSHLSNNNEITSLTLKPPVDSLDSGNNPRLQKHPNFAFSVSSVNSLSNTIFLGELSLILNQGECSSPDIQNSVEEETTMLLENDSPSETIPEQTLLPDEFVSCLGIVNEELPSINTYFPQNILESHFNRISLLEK

| SMILES | IC50 |
| --- | --- |
| CC(=O)NCCCC[C@@H]1NC(=O)[C@H](Cc2c[nH]c3c(C)cccc23)NC(=O)[C@H]([C@@H](C)O)NC(=O)[C@H](CC(N)=O)NC(=O)[C@@H](NC(C)=O)C(C)(C)SSC(C)(C)[C@@H](C(=O)N[C@@H](Cc2ccc(OCCN)cc2)C(=O)N[C@@H](Cc2ccc3ccccc3c2)C(=O)N[C@@](C)(CCCCN)C(=O)N[C@@H](CCCCNC(C)=O)C(=O)N[C@@H](CC(N)=O)C(=O)NC(C)(C)C(=O)N[C@H](CC(N)=O)Cc2ccccc2)NC1=O [Compound 71, Ac-[Pen]-N-T-[W(7-Me)]-[Lys(Ac)]-[Pen]-Phe[4-(2-aminoethoxy)]-[2-Nal]-[a-MeLys]-[Lys(Ac)]-N-[Aib]-[bhPhe]-NH2] | 0.00339 µM |
| CC(=O)NCCCC[C@@H]1NC(=O)[C@H](Cc2c[nH]c3c(C)cccc23)NC(=O)[C@@H](CN)NC(=O)[C@H](CC(N)=O)NC(=O)[C@@H](NC(C)=O)C(C)(C)SSC(C)(C)[C@@H](C(=O)N[C@@H](Cc2ccc(OCCN)cc2)C(=O)N[C@@H](Cc2ccc3ccccc3c2)C(=O)N[C@@](C)(CCCCN)C(=O)N[C@@H](CCCCNC(C)=O)C(=O)N[C@@H](CC(N)=O)C(=O)N[C@H](CC(C)C)C(N)=O)NC1=O [Compound 72, Ac-[Pen]-N-[(D)Dap]-[W(7-Me)]-[Lys(Ac)]-[Pen]-Phe[4-(2-aminoethoxy)]-[2-Nal]-[a-MeLys]-[Lys(Ac)]-N-[(D)Leu]-NH2] (Ac-[Pen]N[dDap][Trp(7-Me)]K(Ac)[Pen][AEF][2Nal][αMeK]K(Ac)N[dL]-NH2; disulfide 1-6) | 0.0526 µM |
| CC(=O)NCCCC[C@@H]1NC(=O)[C@H](Cc2c[nH]c3c(C)cccc23)NC(=O)[C@@H](CCCCN)NC(=O)[C@H](CC(N)=O)NC(=O)[C@@H](NC(C)=O)C(C)(C)SSC(C)(C)[C@@H](C(=O)N[C@@H](Cc2ccc(OCCN)cc2)C(=O)N[C@@H](Cc2ccc3ccccc3c2)C(=O)N[C@@](C)(CCCCN)C(=O)N[C@@H](CCCCNC(C)=O)C(=O)N[C@@H](CC(N)=O)C(=O)N[C@H](CC(C)C)C(N)=O)NC1=O [Compound 73, Ac-[Pen]-N-[(D)Lys]-[W(7-Me)]-[Lys(Ac)]-[Pen]-Phe[4-(2-aminoethoxy)]-[2-Nal]-[a-MeLys]-[Lys(Ac)]-N-[(D)Leu]-NH2] (Ac-[Pen]N[dK][Trp(7-Me)]K(Ac)[Pen][AEF][2Nal][αMeK]K(Ac)N[dL]-NH2; disulfide 1-6) | 0.0511 µM |
| CC(=O)NCCCC[C@@H]1NC(=O)[C@H](Cc2c[nH]c3c(C)cccc23)NC(=O)[C@@H](CC(=O)O)NC(=O)[C@H](CC(N)=O)NC(=O)[C@@H](NC(C)=O)C(C)(C)SSC(C)(C)[C@@H](C(=O)N[C@@H](Cc2ccc(OCCN)cc2)C(=O)N[C@@H](Cc2ccc3ccccc3c2)C(=O)N[C@@](C)(CCCCN)C(=O)N[C@@H](CCCCNC(C)=O)C(=O)N[C@@H](CC(N)=O)C(=O)N[C@H](CC(C)C)C(N)=O)NC1=O [Compound 74, Ac-[Pen]-N-[(D)Asp]-[W(7-Me)]-[Lys(Ac)]-[Pen]-Phe[4-(2-aminoethoxy)]-[2-Nal]-[a-MeLys]-[Lys(Ac)]-N-[(D)Leu]-NH2] (Ac-[Pen]N[dD][Trp(7-Me)]K(Ac)[Pen][AEF][2Nal][αMeK]K(Ac)N[dL]-NH2; disulfide 1-6) | 0.0731 µM |
| CC(=O)NCCCC[C@@H]1NC(=O)[C@H](Cc2c[nH]c3c(C)cccc23)NC(=O)[C@H]([C@@H](C)O)NC(=O)[C@H](CC(N)=O)NC(=O)[C@@H](NC(C)=O)C(C)(C)SSC(C)(C)[C@@H](C(=O)N[C@@H](Cc2ccc(OCCN)cc2)C(=O)N[C@@H](Cc2ccc3ccccc3c2)C(=O)N[C@@](C)(CCCCN)C(=O)N[C@@H](CCCCNC(C)=O)C(=O)N[C@@H](CC(N)=O)C(=O)N[C@@H](Cc2ccc(N)cc2)C(N)=O)NC1=O [Compound 112, Ac-[Pen]-N-T-[W(7-Me)]-[Lys(Ac)]-[Pen]-Phe[4-(2-aminoethoxy)]-[2-Nal]-[a-MeLys]-[Lys(Ac)]-N-Phe[4-NH2]-NH2] | 0.00209 µM |
| CC(=O)NCCCC[C@@H]1NC(=O)[C@H](Cc2c[nH]c3c(C)cccc23)NC(=O)[C@H]([C@@H](C)O)NC(=O)[C@H](CCC(N)=O)NC(=O)[C@@H](NC(=O)[C@@H](CCCNC(=N)N)NC(C)=O)CCSC[C@@H](C(=O)N[C@@H](Cc2ccc(OCCN)cc2)C(=O)N[C@@H](Cc2ccc3ccccc3c2)C(=O)N[C@@](C)(CCCCN)C(=O)N[C@@H](CCCCNC(C)=O)C(=O)N[C@@H](CC(N)=O)C(=O)N[C@@](C)(Cc2ccccc2)C(N)=O)NC1=O [Compound 201, Ac-[(D)Arg]-[Abu]-Q-T-[W(7-Me)]-[Lys(Ac)]-[Cys]-Phe[4-(2-aminoethoxy)]-[2-Nal]-[a-MeLys]-[Lys(Ac)]-N-[a-MePhe]-NH2] (Ac-[dR][Abu(4-yl)]QT[Trp(7-Me)]K(Ac)C[AEF][2Nal][αMeK]K(Ac)N[αMeF]-NH2; thioether 2-7) | 0.0127 µM |
| CC(=O)NCCCC[C@H](NC(=O)[C@](C)(CCCCN)NC(=O)[C@H](Cc1ccc2ccccc2c1)NC(=O)[C@H](Cc1ccc(OCCN)cc1)NC(=O)[C@H]1NC(=O)[C@H](CCCNC(N)=O)NC(=O)[C@H](Cc2c[nH]c3c(C)cccc23)NC(=O)[C@H]([C@@H](C)O)NC(=O)[C@H](CC(N)=O)NC(=O)[C@@H](NC(C)=O)C(C)(C)SSC1(C)C)C(=O)N[C@@H](CC(N)=O)C(=O)NC(C)(C)C(=O)N[C@H](Cc1ccc(O)cc1)C(N)=O [Compound 202, Ac-[Pen]-N-T-[W(7-Me)]-[Cit]-[Pen]-Phe[4-(2-aminoethoxy)]-[2-Nal]-[a-MeLys]-[Lys(Ac)]-N-[Aib]-[(D)Tyr]-NH2] (Ac-[Pen]NT[Trp(7-Me)][Cit][Pen][AEF][2Nal][αMeK]K(Ac)N[Aib][dY]-NH2; disulfide 1-6) | 0.000637 µM |

Each compound was assayed against T1, IL-23R (assay: cell-based). Settings: PBMC pSTAT3 IC50 (nM), PBMCs from healthy donors, IL-23 5 ng/mL, 30 minutes, phosphorylated STAT3.

| SMILES | IC50 |
| --- | --- |
| CCC(=O)N[C@H](CCCNC(=N)N)C(=O)N[C@@H]1C(=O)N[C@@H](CCC(N)=O)C(=O)N[C@@H]([C@@H](C)O)C(=O)N[C@@H](Cc2c[nH]c3ccccc23)C(=O)N[C@@H](CCC(N)=O)C(=O)N[C@H](C(=O)N[C@@H](Cc2ccc(OCCN)cc2)C(=O)N[C@@H](Cc2ccc3ccccc3c2)C(=O)NC2(C(=O)N[C@@H](CCCCNC(=O)C(F)(F)F)C(=O)N[C@@H](CC(N)=O)C(=O)NC3(C(N)=O)CCOCC3)CCOCC2)C(C)(C)SSC1(C)C [Compound 6, [Propionic_acid]-[(D)Arg]-[Pen]-Q-T-W-Q-[Pen]-Phe[4-(2-aminoethoxy)]-[2-Nal]-[THP]-[Lys(COCF3)]-N-[THP]-NH2] | 8.6 nM |

Target: T1, IL-23R
Test: cell-based
Settings: not given
Remark: another data set of the same source

| SMILES | IC50 |
| --- | --- |
| CCC(=O)N[C@H](CCCNC(=N)N)C(=O)N[C@@H]1C(=O)N[C@@H](CCC(N)=O)C(=O)N[C@@H]([C@@H](C)O)C(=O)N[C@@H](Cc2c[nH]c3ccccc23)C(=O)N[C@@H](CCC(N)=O)C(=O)N[C@H](C(=O)N[C@@H](Cc2ccc(OCCN)cc2)C(=O)N[C@@H](Cc2ccc3ccccc3c2)C(=O)NC2(C(=O)N[C@@H](CCCCNC(=O)C(F)(F)F)C(=O)N[C@@H](CC(N)=O)C(=O)NC3(C(N)=O)CCOCC3)CCOCC2)C(C)(C)SSC1(C)C [Compound 6, [Propionic_acid]-[(D)Arg]-[Pen]-Q-T-W-Q-[Pen]-Phe[4-(2-aminoethoxy)]-[2-Nal]-[THP]-[Lys(COCF3)]-N-[THP]-NH2] | 0.0168 µM |
